US7723473B2, “Peptide antagonists of TGF-beta family members and therapeutic uses thereof” (St. Louis University, priority 1997, dated 2010)

Tests used:
TGF-β receptors [1] = assay: Inhibition of specific binding of 125I-TGF-β3 to TGF-β receptors in mink lung epithelial cells; conditions: 0.1 nM 125I-TGF-β3, 2.5 hr at 0° C.; read-out: IC50 for inhibiting 125I-TGF-β3 binding to TGF-β receptors
Procedure: (§1) Specific binding of ^125I-labeled TGF-β1, TGF-β2, and TGF-β3 (^125I-TGF-β1, ^125I-TGF-β2, and ^125I-TGF-β3) to TGF-β receptors in mink lung epithelial cells. ^125I-TGF-β1, ^125I-TGF-β2, and ^125I-TGF-β3 were prepared by iodination of TGF-β1, TGF-β2, and TGF-β3 with Na^125I as described previously (Ref. 7). The specific radioactivities of ^125I-TGF-β1, ^125I-TGF-β2, and ^125I-TGF-β3 were 1-3×10^5 cpm/ng. Mink lung epithelial cells were grown on 24-well clustered dishes to near confluence in Dulbecco's modified Eagle medium (DMEM) containing 10% fetal calf serum. The epithelial cells were incubated with 0.1 nM ^125I-TGF-β1, ^125I-TGF-β2, or ^125I-TGF-β3 both with and without 100-fold excess of unlabeled TGF-β1, TGF-β2, or TGF-β3 in binding buffer (Ref. 7). After 2.5 hr at 0° C., the cells were washed two times with binding buffer, and the cell-associated radioactivity was determined. The specific binding of ^125I-labeled TGF-β isoforms to TGF-β receptors in the cells was calculated by subtracting non-specific binding (in the presence of 100-fold excess of the unlabeled TGF-β isoforms) from total binding. All experiments were carried out in triplicate cell cultures.

TGF-β receptors [2] = assay: Inhibition of specific binding of 125I-TGF-β2 to TGF-β receptors in mink lung epithelial cells; conditions: 0.1 nM 125I-TGF-β2, 2.5 hr at 0° C.; read-out: IC50 for inhibiting 125I-TGF-β2 binding to TGF-β receptors
Procedure: as §1

[3] = test system: type V TGF-β receptor (TβR-V); assay: 125I-TGF-β1-affinity labeling of cell-surface type V TGF-β receptor in mink lung epithelial cells; format: binding; conditions: various concentrations, FIG. 2 lanes 2-5
Procedure: ^125I-TGF-β1-affinity labeling of cell-surface TGF-β receptors in mink lung epithelial cells. Mink lung epithelial cells grown on 60-mm Petri dishes were incubated with 0.1 nM […] the presence of various concentrations of peptide β1^25 (41-65) or peptide β3^25 (41-65) in binding buffer. After 2.5 hr at 0° C., ^125I-TGF-β1-affinity labeling was carried out in the presence of DSS as described. The ^125I-TGF-β1-affinity-labeled TGF-β receptors were analyzed by 5% SDS-polyacrylamide gel electrophoresis under reducing conditions and autoradiography.

TGF-β receptors [4] = assay: Inhibition of specific binding of 125I-TGF-β1 to TGF-β receptors in mink lung epithelial cells; conditions: for IC50: 0.1 nM 125I-TGF-β1, 2.5 hr at 0° C., read-out: IC50 for inhibiting 125I-TGF-β1 binding to TGF-β receptors; for inhibition of 125I-TGF-β1 binding to TGF-β receptors (in words): various concentrations, FIG. 1D / control experiments; for TGF-β antagonist activity compared with the cysteine-containing peptides: C44S/C48S versions; for effect on 125I-TGF-β1 binding to TGF-β receptors: even at a concentration of 136 μM; for IC50 lower than that of peptide β1^25 (41-65) prior to conjugation: 125I-TGF-β1 binding
Procedure: as §1, with “The specific binding of ^125I-labeled TGF-β isoforms to TGF-β receptors in the cells was calculated by subtracting non-specific binding (in the presence of 100-fold excess of the unlabeled TGF-β isoforms) from total binding.” left out

[5] = Stability in solution or gel during storage; format: physicochemical; conditions: compared with cysteine-containing peptides
Description: Preparation of peptides. The amino acid sequences of all peptides were derived from those of TGF-β1, TGF-β2, and TGF-β3. For peptides β1^25 (41-65), β2^25 (41-65), and β3^25 (41-65), other versions in which cysteine-44 and cysteine-48 were replaced by serine residues were also synthesized. […] The C44S/C48S version of peptide β1^25 (41-65) is designated SEQ ID NO:12, the C44S/C48S version of the peptide β2^25 (41-65) is designated SEQ ID NO: 13, and the C44S/C48S version of peptide of β3^25 (41-65) is designated SEQ ID NO:14. […] The peptides were synthesized using tert-butoxycarbonyl chemistry on an Applied Biosystems Model 431A peptide synthesizer and purified using Sephadex G-25 column chromatography and reverse-phase HPLC (C-8 column). The purity of the synthesized peptides were verified by automated Edman degradation on an Applied Biosystems Model 477A gas/liquid phase protein sequenator with an on-line Applied Biosystems Model 120A phenylthiohydantoin amino acid analyzer. The purity of all peptides was estimated to be ≧95%.
Preparation of IntraSite® gel containing TGF-β peptantagonist (peptide TGF-beta antagonist). 1 ml of sterile 6 mM peptide β1^25 (41-65) in phosphate buffered saline or 1 ml of sterile phosphate buffered saline was vigorously mixed with 3 ml of IntraSite® gel using two 10 ml syringes connected with a three-way connector. […] However, 1.5 mM of peptide β1^25 (41-65) was used throughout the experiments described below.

type V TGF-β receptor = type V TGF-β receptor (Homo sapiens, UniProt Q07954); conditions: Ref. 6; read-out: Kd for binding to the type V TGF-β receptor; cited from earlier work
Chain of type V TGF-β receptor (Q07954 20-4544): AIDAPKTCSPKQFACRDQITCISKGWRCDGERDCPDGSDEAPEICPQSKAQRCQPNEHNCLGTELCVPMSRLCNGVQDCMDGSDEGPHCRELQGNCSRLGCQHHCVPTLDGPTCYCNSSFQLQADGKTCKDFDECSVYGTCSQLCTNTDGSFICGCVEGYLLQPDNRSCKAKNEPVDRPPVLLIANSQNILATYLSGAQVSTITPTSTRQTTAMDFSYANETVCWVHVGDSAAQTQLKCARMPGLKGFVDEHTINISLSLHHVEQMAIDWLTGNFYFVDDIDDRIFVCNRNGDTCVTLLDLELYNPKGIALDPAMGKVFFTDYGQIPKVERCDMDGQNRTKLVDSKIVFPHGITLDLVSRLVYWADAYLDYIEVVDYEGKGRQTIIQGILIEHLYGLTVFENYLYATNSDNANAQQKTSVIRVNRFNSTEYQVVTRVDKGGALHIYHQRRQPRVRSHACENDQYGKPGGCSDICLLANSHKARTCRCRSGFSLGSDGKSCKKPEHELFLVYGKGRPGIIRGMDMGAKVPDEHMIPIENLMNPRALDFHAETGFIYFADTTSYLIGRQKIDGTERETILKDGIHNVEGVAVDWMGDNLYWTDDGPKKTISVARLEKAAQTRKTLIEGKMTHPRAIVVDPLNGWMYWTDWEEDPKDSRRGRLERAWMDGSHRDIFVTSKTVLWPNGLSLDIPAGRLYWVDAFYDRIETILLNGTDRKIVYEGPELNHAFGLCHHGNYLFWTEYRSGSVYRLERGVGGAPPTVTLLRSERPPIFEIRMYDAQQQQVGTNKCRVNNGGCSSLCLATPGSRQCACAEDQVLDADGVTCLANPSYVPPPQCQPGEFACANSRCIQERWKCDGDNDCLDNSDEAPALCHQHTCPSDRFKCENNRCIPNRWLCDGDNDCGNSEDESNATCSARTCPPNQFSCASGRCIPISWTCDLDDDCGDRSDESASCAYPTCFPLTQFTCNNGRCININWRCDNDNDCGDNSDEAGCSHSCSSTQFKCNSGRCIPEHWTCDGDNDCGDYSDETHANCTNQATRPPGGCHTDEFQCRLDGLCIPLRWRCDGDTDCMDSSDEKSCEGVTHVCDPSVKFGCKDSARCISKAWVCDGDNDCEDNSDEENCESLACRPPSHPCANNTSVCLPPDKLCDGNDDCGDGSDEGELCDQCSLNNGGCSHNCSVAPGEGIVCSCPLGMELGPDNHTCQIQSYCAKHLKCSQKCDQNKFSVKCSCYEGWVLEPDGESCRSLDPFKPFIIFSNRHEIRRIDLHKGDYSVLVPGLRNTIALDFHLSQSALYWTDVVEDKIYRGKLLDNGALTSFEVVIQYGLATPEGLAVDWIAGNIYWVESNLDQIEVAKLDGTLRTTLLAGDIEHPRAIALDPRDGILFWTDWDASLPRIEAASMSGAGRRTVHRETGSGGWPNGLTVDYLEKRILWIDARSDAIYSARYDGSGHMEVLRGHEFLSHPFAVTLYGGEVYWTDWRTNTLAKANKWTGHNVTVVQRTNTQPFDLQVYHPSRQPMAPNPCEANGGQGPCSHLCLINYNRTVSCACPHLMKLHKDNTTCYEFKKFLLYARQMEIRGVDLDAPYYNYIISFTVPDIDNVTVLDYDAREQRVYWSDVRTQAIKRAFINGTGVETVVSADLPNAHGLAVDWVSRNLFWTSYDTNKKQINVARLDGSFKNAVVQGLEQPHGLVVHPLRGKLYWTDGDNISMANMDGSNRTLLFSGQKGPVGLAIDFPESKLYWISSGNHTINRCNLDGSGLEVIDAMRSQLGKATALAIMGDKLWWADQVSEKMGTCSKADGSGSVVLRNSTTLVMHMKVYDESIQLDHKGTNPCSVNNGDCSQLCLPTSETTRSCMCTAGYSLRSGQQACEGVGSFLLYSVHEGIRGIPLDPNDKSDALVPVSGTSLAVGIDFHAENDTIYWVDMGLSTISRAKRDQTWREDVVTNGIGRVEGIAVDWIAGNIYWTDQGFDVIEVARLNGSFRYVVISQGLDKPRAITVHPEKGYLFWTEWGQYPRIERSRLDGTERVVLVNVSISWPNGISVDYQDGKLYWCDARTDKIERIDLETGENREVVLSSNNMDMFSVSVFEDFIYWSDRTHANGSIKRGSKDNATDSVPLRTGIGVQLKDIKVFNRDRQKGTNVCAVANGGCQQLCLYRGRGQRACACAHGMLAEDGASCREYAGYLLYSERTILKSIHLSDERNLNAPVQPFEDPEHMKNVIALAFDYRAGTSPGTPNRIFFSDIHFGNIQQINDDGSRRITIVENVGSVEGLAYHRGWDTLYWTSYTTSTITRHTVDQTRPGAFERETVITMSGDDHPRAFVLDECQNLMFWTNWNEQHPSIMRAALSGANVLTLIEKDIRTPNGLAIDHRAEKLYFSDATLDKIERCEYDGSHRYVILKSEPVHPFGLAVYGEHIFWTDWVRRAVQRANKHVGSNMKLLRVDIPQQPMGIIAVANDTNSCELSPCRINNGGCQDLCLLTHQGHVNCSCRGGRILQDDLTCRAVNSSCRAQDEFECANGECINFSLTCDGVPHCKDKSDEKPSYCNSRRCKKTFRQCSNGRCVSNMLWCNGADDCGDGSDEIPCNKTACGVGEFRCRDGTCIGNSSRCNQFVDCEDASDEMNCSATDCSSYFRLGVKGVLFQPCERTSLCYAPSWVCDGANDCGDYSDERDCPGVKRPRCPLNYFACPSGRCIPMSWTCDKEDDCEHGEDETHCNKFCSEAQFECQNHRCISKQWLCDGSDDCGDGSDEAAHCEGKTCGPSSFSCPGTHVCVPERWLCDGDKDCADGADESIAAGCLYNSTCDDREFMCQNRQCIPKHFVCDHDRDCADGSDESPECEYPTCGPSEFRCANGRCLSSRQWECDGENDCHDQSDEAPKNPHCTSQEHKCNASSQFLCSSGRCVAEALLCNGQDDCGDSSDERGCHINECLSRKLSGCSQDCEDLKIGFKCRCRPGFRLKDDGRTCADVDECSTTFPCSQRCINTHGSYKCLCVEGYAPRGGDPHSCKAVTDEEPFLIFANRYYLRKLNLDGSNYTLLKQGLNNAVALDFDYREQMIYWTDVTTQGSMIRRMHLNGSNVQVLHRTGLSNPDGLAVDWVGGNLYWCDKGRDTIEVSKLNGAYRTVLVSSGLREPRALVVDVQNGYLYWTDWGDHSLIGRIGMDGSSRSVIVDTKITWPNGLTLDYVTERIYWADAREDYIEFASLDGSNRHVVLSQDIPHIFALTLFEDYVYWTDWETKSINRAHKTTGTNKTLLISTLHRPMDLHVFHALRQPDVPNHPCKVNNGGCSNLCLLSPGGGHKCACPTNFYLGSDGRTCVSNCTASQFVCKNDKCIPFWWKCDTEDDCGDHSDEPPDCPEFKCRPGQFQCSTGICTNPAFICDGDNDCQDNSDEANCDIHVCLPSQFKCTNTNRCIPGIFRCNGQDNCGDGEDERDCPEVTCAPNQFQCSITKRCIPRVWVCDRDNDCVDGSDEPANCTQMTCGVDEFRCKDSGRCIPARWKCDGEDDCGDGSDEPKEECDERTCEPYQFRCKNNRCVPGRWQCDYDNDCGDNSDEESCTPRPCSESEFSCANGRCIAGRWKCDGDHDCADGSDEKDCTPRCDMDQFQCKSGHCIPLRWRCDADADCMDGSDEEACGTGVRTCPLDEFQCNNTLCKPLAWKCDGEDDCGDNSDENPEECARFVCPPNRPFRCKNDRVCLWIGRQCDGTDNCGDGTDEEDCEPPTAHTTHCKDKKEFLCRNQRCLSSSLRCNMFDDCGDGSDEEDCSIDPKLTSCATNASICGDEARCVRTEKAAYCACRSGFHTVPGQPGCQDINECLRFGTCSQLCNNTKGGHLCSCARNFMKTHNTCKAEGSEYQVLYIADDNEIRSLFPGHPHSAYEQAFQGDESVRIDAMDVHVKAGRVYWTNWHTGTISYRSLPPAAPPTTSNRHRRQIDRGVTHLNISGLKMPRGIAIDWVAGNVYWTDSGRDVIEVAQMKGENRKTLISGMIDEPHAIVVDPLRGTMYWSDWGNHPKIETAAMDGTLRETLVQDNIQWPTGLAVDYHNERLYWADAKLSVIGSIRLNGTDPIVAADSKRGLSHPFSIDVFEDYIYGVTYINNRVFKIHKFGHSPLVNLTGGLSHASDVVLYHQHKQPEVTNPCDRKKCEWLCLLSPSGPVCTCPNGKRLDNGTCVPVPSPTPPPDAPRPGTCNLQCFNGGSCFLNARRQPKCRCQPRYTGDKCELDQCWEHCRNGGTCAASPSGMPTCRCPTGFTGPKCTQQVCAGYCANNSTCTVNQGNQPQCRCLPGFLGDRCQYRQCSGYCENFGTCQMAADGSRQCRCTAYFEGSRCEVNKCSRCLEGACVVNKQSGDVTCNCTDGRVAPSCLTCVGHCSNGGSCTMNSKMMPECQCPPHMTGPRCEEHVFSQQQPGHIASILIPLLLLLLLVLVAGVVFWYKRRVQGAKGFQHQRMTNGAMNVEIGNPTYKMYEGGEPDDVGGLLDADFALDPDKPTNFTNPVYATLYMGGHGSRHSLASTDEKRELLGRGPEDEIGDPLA

[6] = test system: mink lung epithelial cells; assay: Mink lung epithelial cell growth measured by DNA synthesis without added TGF-β1 (agonist activity); format: cell-based; conditions: for EC50: no added TGF-β1, read-out: ED50 of growth inhibition as measured by DNA synthesis
Procedure: [Methyl-^3H]thymidine Incorporation—Mink lung epithelial cells grown on 24-well clustered dishes were incubated with various concentrations of TGF-β1 in the presence and absence of peptide β1^25 (41-65) or with various concentrations of peptide β1^25 (41-65)-CA, and peptide β1^25 (41-65)-BSA in DMEM containing 0.1% fetal calf serum. After 16 hr at 37° C., the cells were pulsed with 1 μCi/ml of [methyl-^3H]thymidine for 4 hr. The cells were then washed twice with 1 ml of 10% trichloroacetic acid and once with 0.5 ml of ethanol:ether (2:1, v/v). The cells were then dissolved in 0.4 ml of 0.2 N NaOH and counted with a liquid scintillation counter.

PAI-1 expression = PAI-1 expression in mink lung epithelial cells (Northern blot); format: cell-based; conditions: conjugates alone, data not shown
Procedure: RNA Analysis—Mink lung epithelial cells were grown overnight in 12-well clustered dishes in DMEM containing 10% fetal calf serum. The medium was then changed to DMEM containing 0.1% fetal calf serum and the cells were incubated with 0.25 and 2.5 ρM TGF-β1 in the presence of various concentrations of peptide β1^25 (41-65) for 2.5 hr. Total cellular RNA was extracted using RNAzol B (Tel-Test Inc.) according to the manufacturer's protocol. RNA was electrophoresed in 1.2% agarose-formaldehyde gel and transferred to Duralon-UV membranes using 10×SSC. The membranes were probed at 42° C. with a random-primed, radiolabeled 1-kb fragment from the Hind III and NeoI digests of PAI-1 cDNA and glyceraldehyde-3-phosphate dehydrogenase (“GAPDH”) cDNA. The blots were washed with 0.1×SSC containing 0.1% SDS at room temperature.

With “ANFCAGACPYLWSSDTQHSRVLSLY [peptide β2^25 (41-65)]” the IC50 (TGF-β receptors [1]) was ~80 nM.

With “ANFCSGPCPYLRSADTTHSTVLGLY [peptide β3^25 (41-65)]” the IC50 (TGF-β receptors [2]) was ~20000 nM, the “blocking the 125I-TGF-β1-affinity labeling of the type V TGF-β receptor” value [3] was “weak activity” and the IC50 (TGF-β receptors [4]) was ~20000 nM.

With “CA: carrier protein human carbonic anhydrase I conjugated without peptides, control [reference compound]” the “inhibition of 125I-TGF-β1 binding to TGF-β receptors (in words)” value (“inhibition of 125I-TGF-β1 binding” below) (TGF-β receptors [4]) was “did not have inhibitory activity”.

For “SEQ ID NO:12: β1^25 (41-65) with cysteine-44 and cysteine-48 replaced by serine residues (ANFSLGPSPYIWSLDTQYSKVLALY; listed as Homo sapiens)”, the “stability in solution during storage” value [5] was “better stability” and the “TGF-β antagonist activity compared with the cysteine-containing peptides” value (TGF-β receptors [4]) was “same TGF-β antagonist activity”.

For “SEQ ID NO:14: β3^25 (41-65) with cysteine-44 and cysteine-48 replaced by serine residues (ANFSSGPSPYLRSADTTHSTVLGLY; listed as Homo sapiens)”, the “stability in solution during storage” value [5] was “better stability” and the “TGF-β antagonist activity compared with the cysteine-containing peptides” value (TGF-β receptors [4]) was “same TGF-β antagonist activity”.

For “SEQ ID NO: 13: β2^25 (41-65) with cysteine-44 and cysteine-48 replaced by serine residues (ANFSAGASPYLWSSDTQHSRVLSLY; Human)”, the “stability in solution during storage” value [5] was “better stability” and the “TGF-β antagonist activity compared with the cysteine-containing peptides” value (TGF-β receptors [4]) was “same TGF-β antagonist activity”.

For “TGF-β1: transforming growth factor β1, 25-kDa dimeric protein”, the Kd (type V TGF-β receptor) is listed as ~0.4 nM.

For TGF-β2: transforming growth factor β2, the Kd (type V TGF-β receptor) is listed as ~0.4 nM.

In the case of TGF-β3: transforming growth factor β3, the Kd (type V TGF-β receptor) is given as ~5 nM.

With “peptide β1^25 (21-45): pentacosapeptide, residues 21-45 of human TGF-β1 (YIDFRKDLGWKWIHEPKGYHANFCL)” the “effect on 125I-TGF-β1 binding to TGF-β receptors” value (from here on “effect on 125I-TGF-β1 binding”) (TGF-β receptors [4]) was “did not show any effect”.

With “peptide β1^25 (31-55): pentacosapeptide, residues 31-55 of human TGF-β1 (KWIHEPKGYHANFCLGPCPYIWSLD)” the “effect on 125I-TGF-β1 binding” value (TGF-β receptors [4]) was “did not show any effect”.

In the case of “peptide β1^25 (51-75): pentacosapeptide, residues 51-75 of human TGF-β1 (IWSLDTQYSKVLALYNQHNPGASAA)”, the “effect on 125I-TGF-β1 binding” value (TGF-β receptors [4]) is reported as “did not show any effect”.

In the case of “peptide β1^25 (61-85): pentacosapeptide, residues 61-85 of human TGF-β1 (VLALYNQHNPGASAAPCCVPQALEP)”, the “effect on 125I-TGF-β1 binding” value (TGF-β receptors [4]) is reported as “did not show any effect”.

For “peptide β1^25 (71-95): pentacosapeptide, residues 71-95 of human TGF-β1 (GASAAPCCVPQALEPLPIVYYVGRK)”, the “effect on 125I-TGF-β1 binding” value (TGF-β receptors [4]) was “did not show any effect”.

For “peptide β1^25 (81-105): pentacosapeptide, residues 81-105 of human TGF-β1 (QALEPLPIVYYVGRKPKVEQLSNMI)”, the “effect on 125I-TGF-β1 binding” value (TGF-β receptors [4]) was “did not show any effect”.

With β1^10 (49-58) D55A (PYIWSLATQY) the “inhibition of 125I-TGF-β1 binding” value (TGF-β receptors [4]) was “similar”.

In the case of β1^10 (49-58) S53A (PYIWALDTQY), the “inhibition of 125I-TGF-β1 binding” value (TGF-β receptors [4]) is reported as “similar”.

In the case of β1^10 (49-58) W52A (PYIASLDTQY), the “inhibition of 125I-TGF-β1 binding” value (TGF-β receptors [4]) is reported as “similar”.

For “β1^25 (41-65) W52A/D55A (ANFCLGPCPYIASLATQYSKVLALY)”, the “inhibition of 125I-TGF-β1 binding” value (TGF-β receptors [4]) was “did not inhibit”.

For “β1^25 (41-65)-BSA: peptide β1^25 (41-65) cross-linked with DSS to bovine serum albumin, ~5-10 peptides per carrier protein”, the EC50 [6] was ~100 nM, the “IC50 lower than that of peptide β1^25 (41-65) prior to conjugation” value (TGF-β receptors [4]) was ~20 fold and the “effects on the expression of PAI-1” value (PAI-1 expression) was “neither showed significant effects”.

For “β1^25 (41-65)-CA: peptide β1^25 (41-65) cross-linked with DSS to human carbonic anhydrase I, ~5-10 peptides per carrier protein”, the “growth inhibition induced by conjugate” value ([6]; 0.2 μM conjugate) was 30-40%, the EC50 [6] was ~100 nM and the IC50 (TGF-β receptors [4]) was ~50 nM. The “IC50 lower than that of peptide β1^25 (41-65) prior to conjugation” value (TGF-β receptors [4]) was ~20 fold and the “effects on the expression of PAI-1” value (PAI-1 expression) was “neither showed significant effects”.

With β2^10 (49-58) D55A (PYLWSSATQH) the “inhibition of 125I-TGF-β1 binding” value (TGF-β receptors [4]) was “failed to inhibit”.

With β2^10 (49-58) S53A (PYLWASDTQH) the IC50 (TGF-β receptors [4]) was ~40000 nM.

With β2^10 (49-58) W52A (PYLASSDTQH) the “inhibition of 125I-TGF-β1 binding” value (TGF-β receptors [4]) was “failed to inhibit”.

For “β3^10 (49-58): decapeptide, residues 49-58 of TGF-β3 (SEQ ID NO:9) (PYLRSADTTH; listed as Homo sapiens)”, the “inhibitory activity on 125I-TGF-β1 binding” value (TGF-β receptors [4]; concentrations up to ~300 μM) was “did not show any inhibitory activity”.

In the case of “β3^25 (41-65) R52A/D55A (ANFCSGPCPYLASAATTHSTVLGLY)”, the “inhibition of 125I-TGF-β1 binding” value (TGF-β receptors [4]) is reported as “did not inhibit”.
